Test results from ChEMBL document CHEMBL5247609, “Novel nitric oxide-releasing derivatives of pyranocarbazole as antitumor agents: Design, synthesis, biological evaluation, and nitric oxide release studies” (Eur J Med Chem, 2022).
Calls of active or inactive are those of the source. The rule behind the calls is not given here.

Legend:
MDA-MB-231 [1] = assay: Induction of apoptosis in human MDA-MB-231 cells assessed as upregulation of Bax by Western blotting analysis; type: functional, cell-based; conditions: dose 0.5-2 µM
MX1 [2] = assay: Induction of apoptosis in human MX1 cells assessed as early apoptotic cells measured at 2 uM after 48 hrs by FITC-Annexin-V and propidium iodide based flow cytometric analysis (reference value: 6.30%); type: functional
MX1 [3] = assay: Induction of apoptosis in human MX1 cells assessed as early apoptotic cells measured at 1 uM after 48 hrs by FITC-Annexin-V and propidium iodide based flow cytometric analysis (reference value: 6.30%); type: functional
EMT6 [4] = assay: Antitumor activity against mouse EMT6 cells allografted in BALBC mouse a assessed as reduction in tumor growth inhibition at 150 mg/kg, IG administered every 3 days for 21 days relative to control; type: functional; conditions: EMT6, po, 504 h, time 21 day, read-out: TGI
MDA-MB-231 [5] = assay: Induction of apoptosis in human MDA-MB-231 cells assessed as necrotic cells measured at 0.5 uM after 48 hrs by FITC-Annexin-V and propidium iodide based flow cytometric analysis (reference value: 0.253 %); type: functional
NCI-H460 = assay: Antiproliferative activity against human H460 cells assessed as reduction in cell viability after 96 hrs by MTT assay; type: functional, cell-based; conditions: NCI-H460, 96 h
MDA-MB-231 [6] = assay: Antitumor activity against human MDA-MB-231 cells xenografted in BALBC mouse assessed as reduction of tumor volume at 150 mg/kg, IG administered every 3 days for 21 days relative to control; type: functional; set-up: scale not given: the % may be the effect or the level left; conditions: time 21 day
MDA-MB-231 [7] = assay: Inhibition of PI3K/Akt signaling in human MDA-MB-231 cells assessed as decrease in total Akt expression level incubated for 24 hrs by Western blotting analysis; type: cell-based
MDA-MB-231 [8] = assay: Antitumor activity against human MDA-MB-231 cells xenografted in BALBC mouse assessed as inhibition of tumor growth at 75 mg/kg, IG administered every 3 days for 21 days relative to control; type: functional; conditions: MDA-MB-231, po, 504 h, time 21 day, read-out: TGI
EMT6 [9] = assay: Antitumor activity against mouse EMT6 cells allografted in BALBC mouse assessed as reduction in tumor progression at 150 mg/kg, IG administered every 3 days for 21 days; type: functional, organism-based; conditions: time 21.0 day
MDA-MB-231 [10] = assay: Induction of apoptosis in human MDA-MB-231 cells assessed as early apoptotic cells measured at 1 uM after 48 hrs by FITC-Annexin-V and propidium iodide based flow cytometric analysis (reference value: 2.71%); type: functional
MX1 [11] = assay: Induction of cell cycle arrest in human MX1 cells assessed as decrease in cyclin B1 expression at 0.5 to 2 uM by Western blotting analysis; type: functional, cell-based; conditions: dose 0.5-2 µM, time 24.0 hrs
MDA-MB-231 [12] = assay: Induction of apoptosis in human MDA-MB-231 cells assessed as early apoptotic cells measured at 0.5 uM after 48 hrs by FITC-Annexin-V and propidium iodide based flow cytometric analysis (reference value: 2.71%); type: functional
MDA-MB-231 [13] = assay: Inhibition of PI3K/Akt signaling in human MDA-MB-231 cells assessed as decrease in phosphorylated Akt expression level incubated for 24 hrs by Western blotting analysis; type: cell-based; conditions: dose 0.5-5 µM
MDA-MB-231 [14] = assay: Induction of apoptosis in human MDA-MB-231 cells assessed as viable cells measured at 5 uM after 48 hrs by FITC-Annexin-V and propidium iodide based flow cytometric analysis (reference value: 94.4% ); type: functional; conditions: read-out: Activity
MX1 [15] = assay: Induction of apoptosis in human MX1 cells assessed as upregulation of Bax by Western blotting analysis; type: functional, cell-based; conditions: dose 0.5-2 µM
MDA-MB-231 [16] = assay: Induction of apoptosis in human MDA-MB-231 cells assessed as late apoptotic cells measured at 5 uM after 48 hrs by FITC-Annexin-V and propidium iodide based flow cytometric analysis (reference value: 2.68%); type: functional
MX1 [17] = assay: Induction of apoptosis in human MX1 cells assessed as increase in cleaved PARP-1 expression at 0.5 to 2 uM by Western blotting analysis; type: functional, cell-based; conditions: dose 0.5-2 µM
MDA-MB-231 [18] = assay: Induction of morphological changes in human MDA-MB-231 cells assessed as decrease in cell size at 0.5 to 2 uM measured after 24 hrs by bright field inverted microscopic analysis; type: functional, cell-based; conditions: dose 0.5-2 µM
MX1 [19] = assay: Induction of apoptosis in human MX1 cells assessed as late apoptotic cells measured at 2 uM after 48 hrs by FITC-Annexin-V and propidium iodide based flow cytometric analysis (reference value: 5.24%); type: functional
MX1 [20] = assay: Inhibition of PI3K/Akt signaling in human MX1 cells assessed as decrease in total Akt expression level incubated for 24 hrs by Western blotting analysis; type: cell-based
MDA-MB-231 [21] = assay: Induction of apoptosis in human MDA-MB-231 cells assessed as viable cells measured at 1 uM after 48 hrs by FITC-Annexin-V and propidium iodide based flow cytometric analysis (reference value: 94.4% ); type: functional; conditions: read-out: Activity
MDA-MB-231 [22] = assay: Induction of apoptosis in human MDA-MB-231 cells assessed as necrotic cells measured at 1 uM after 48 hrs by FITC-Annexin-V and propidium iodide based flow cytometric analysis (reference value: 0.253 %); type: functional
MX1 [23] = assay: Induction of apoptosis in human MX1 cells assessed as necrotic cells measured at 1 uM after 48 hrs by FITC-Annexin-V and propidium iodide based flow cytometric analysis (reference value: 0.055 %); type: functional
MX1 [24] = assay: Induction of apoptosis in human MX1 cells assessed as viable cells measured at 1 uM after 48 hrs by FITC-Annexin-V and propidium iodide based flow cytometric analysis (reference value: 88.4%); type: functional; conditions: read-out: Activity
[25] = Toxicity in BALBC mouse allografted with mouse EMT6 cells assessed as weight loss at 50 to 150 mg/kg, IG administered every 3 days for 21 days; type: organism-based; conditions: in vivo, po, 504 h, dose 50-150 mg/kg, time 21 day
MDA-MB-231 [26] = assay: Antitumor activity against human MDA-MB-231 cells xenografted in ig dosed BALBc mouse assessed as inhibition of tumor growth administered every 3 days for 21 days; type: functional, organism-based; conditions: time 21.0 day
MDA-MB-231 [27] = assay: Antiproliferative activity against human MDA-MB-231 cells assessed as reduction in cell viability by measuring release of nitrite at 100 uM after 180 mins by Griess reagent analysis; type: functional; conditions: 3 h
MX1 [28] = assay: Induction of apoptosis in human MX1 cells assessed as total apoptotic cells measured at 5 uM after 48 hrs by FITC-Annexin-V and propidium iodide based flow cytometric analysis (reference value: 16.36%); type: functional
MX1 [29] = assay: Induction of cell cycle arrest in human MX1 cells assessed as increase in CDK6 expression at 0.5 to 2 uM by Western blotting analysis; type: functional, cell-based; conditions: dose 0.5-2 µM, time 24.0 hrs
MDA-MB-231 [30] = assay: Induction of apoptosis in human MDA-MB-231 cells assessed as increase in cleaved PARP expression at 0.5 to 2 uM by Western blotting analysis; type: functional, cell-based; conditions: dose 0.5-2 µM
MX1 [31] = assay: Induction of cell cycle arrest in human MX1 cells assessed as accumulation of cells at G0/G1 phase at 0.5 to 2 uM measured after 24 hrs by propidium iodide staining based FACS calibur flow cytometeric analysis (reference value: 39.2%); type: functional; conditions: dose 0.5-2 µM
HeLa = assay: Antiproliferative activity against human HeLa cells assessed as reduction in cell viability after 96 hrs by MTT assay; type: functional, cell-based

IC50 (NCI-H460): 780 nM | IC50 (HeLa): 140 nM
SMILES: CC1(C)C=Cc2c(c(/C=C/C(=O)NCCOc3no[n+]([O-])c3S(=O)(=O)c3ccccc3)cc3c2[nH]c2ccc(C(C)(C)C)cc23)O1
Activity (MDA-MB-231 [1]): Dose-Dependent Effect | Activity (MX1 [2]): 85.3% | Activity (MX1 [3]): 48.2% | inhibition in vivo at 150 mg/kg (EMT6 [4]): 50.1% | Activity (MDA-MB-231 [5]): 0.644% | Activity (MDA-MB-231 [6]): 40% | inhibition (MDA-MB-231 [7]): inactive | inhibition in vivo at 75 mg/kg (MDA-MB-231 [8]): 30% | Activity (EMT6 [9]): Active | Activity (MDA-MB-231 [10]): 3.76% | Activity (MX1 [11]): Active | Activity (MDA-MB-231 [12]): 3.12% | inhibition (MDA-MB-231 [13]): Dose-Dependent Effect | viability at 5 µM (MDA-MB-231 [14]): 47.1% | Activity (MX1 [15]): Dose-Dependent Effect | Activity (MDA-MB-231 [16]): 20.8% | Activity (MX1 [17]): Active | Activity (MDA-MB-231 [18]): Active | Activity (MX1 [19]): 2.83% | inhibition (MX1 [20]): inactive | viability at 1 µM (MDA-MB-231 [21]): 91.2% | Activity (MDA-MB-231 [22]): 0.209% | Activity (MX1 [23]): 0.193% | viability at 1 µM (MX1 [24]): 43.5% | Activity [25]: Non-Toxic | Activity (MDA-MB-231 [26]): Dose-Dependent Effect | Nitrite release (MDA-MB-231 [27]): 54.7 µM | Activity (MX1 [28]): 87.2% | Activity (MX1 [29]): Active | Activity (MDA-MB-231 [30]): Active | Activity (MX1 [31]): 43.1%
